Converted amounts (≈) assume the structure as drawn.
What was measured:
[1] = Metabolic stability in human microsomes assessed as maximal achievable bioavailability; format: ADME, Microsome; conditions: read-out: Stability
Cannabinoid receptor 2 [2] = biological target: T1, Cannabinoid receptor 2 (Mus musculus, UniProt P47936); experiment: Agonist activity at mouse CB2 receptor by cAMP read-out assay; format: functional
Cannabinoid receptor 1 [3] = biological target: Cannabinoid receptor 1 (Mus musculus, UniProt P47746); experiment: Agonist activity at mouse CB1 receptor by cAMP read-out assay; format: functional
Sequence of Cannabinoid receptor 1 (Mus musculus, UniProt P47746) (P47746 whole entry): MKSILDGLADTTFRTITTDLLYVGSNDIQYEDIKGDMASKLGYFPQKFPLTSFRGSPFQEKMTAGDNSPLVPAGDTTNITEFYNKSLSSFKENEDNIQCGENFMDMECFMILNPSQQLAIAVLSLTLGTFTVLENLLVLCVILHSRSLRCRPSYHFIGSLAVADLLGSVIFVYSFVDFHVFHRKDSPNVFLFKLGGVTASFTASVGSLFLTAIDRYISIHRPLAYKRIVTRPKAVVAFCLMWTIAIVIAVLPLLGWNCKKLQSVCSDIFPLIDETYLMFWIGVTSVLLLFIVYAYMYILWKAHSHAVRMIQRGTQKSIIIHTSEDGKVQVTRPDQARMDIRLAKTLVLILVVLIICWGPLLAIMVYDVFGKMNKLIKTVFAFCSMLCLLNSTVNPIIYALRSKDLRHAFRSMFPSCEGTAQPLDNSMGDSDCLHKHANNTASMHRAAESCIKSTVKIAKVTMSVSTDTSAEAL

[4] = Permeability, Pe of the compound; format: ADME; conditions: not told; read-out: permeability
Cannabinoid receptor 1 [5] = biological target: T2, Cannabinoid receptor 1 (Homo sapiens, UniProt P21554); experiment: Agonist activity at human CB1 receptor by cAMP read-out assay; format: functional
T2 sequence (P21554 whole entry): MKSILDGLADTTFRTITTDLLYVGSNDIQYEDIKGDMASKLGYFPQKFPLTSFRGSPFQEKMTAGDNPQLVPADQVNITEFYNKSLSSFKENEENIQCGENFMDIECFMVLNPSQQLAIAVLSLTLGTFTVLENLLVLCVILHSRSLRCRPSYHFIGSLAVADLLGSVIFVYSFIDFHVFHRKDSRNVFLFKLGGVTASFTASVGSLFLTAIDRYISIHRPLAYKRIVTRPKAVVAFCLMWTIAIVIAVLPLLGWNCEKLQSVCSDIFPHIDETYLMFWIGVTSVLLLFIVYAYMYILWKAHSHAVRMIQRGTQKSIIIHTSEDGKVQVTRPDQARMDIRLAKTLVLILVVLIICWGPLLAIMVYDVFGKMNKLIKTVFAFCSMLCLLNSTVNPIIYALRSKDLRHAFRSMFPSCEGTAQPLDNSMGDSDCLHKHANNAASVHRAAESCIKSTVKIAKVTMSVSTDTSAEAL

[6] = Permeability, Pe of the compound assessed as drug accumulation; format: ADME; conditions: not told; read-out: permeability
Cannabinoid receptor 2 [7] = biological target: T1, Cannabinoid receptor 2; experiment: Binding affinity to mouse CB2 receptor
Cannabinoid receptor 2 [8] = biological target: T3, Cannabinoid receptor 2 (Homo sapiens, UniProt P34972); experiment: Agonist activity at human CB2 receptor by beta-arrestin recruitment assay
T3 sequence (P34972 whole entry): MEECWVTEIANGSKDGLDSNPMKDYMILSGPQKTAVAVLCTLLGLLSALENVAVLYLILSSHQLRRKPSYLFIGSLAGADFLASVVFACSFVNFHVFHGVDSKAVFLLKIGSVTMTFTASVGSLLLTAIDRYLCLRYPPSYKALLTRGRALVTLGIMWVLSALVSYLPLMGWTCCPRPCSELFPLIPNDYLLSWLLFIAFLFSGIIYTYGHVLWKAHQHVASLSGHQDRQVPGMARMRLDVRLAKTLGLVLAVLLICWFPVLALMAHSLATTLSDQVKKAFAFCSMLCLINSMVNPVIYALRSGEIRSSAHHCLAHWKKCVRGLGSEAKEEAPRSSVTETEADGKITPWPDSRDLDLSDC

Cannabinoid receptor 2 [9] = biological target: T3, Cannabinoid receptor 2; experiment: Binding affinity to human CB2 receptor
[10] = Solubility, of the compound by LYSA assay; format: physicochemical
[11] = Lipophilicity, log D of the compound; format: physicochemical; conditions: octanol/water
Cannabinoid receptor 2 [12] = biological target: T3, Cannabinoid receptor 2; experiment: Agonist activity at human CB2 receptor by cAMP read-out assay; format: functional
Cannabinoid receptor 2 [13] = biological target: T3, Cannabinoid receptor 2; experiment: Binding affinity to CB2 receptor (unknown origin)
Cannabinoid receptor 1 [14] = biological target: T2, Cannabinoid receptor 1; experiment: Binding affinity to CB1 receptor (unknown origin)
Cannabinoid receptor 2 [15] = biological target: Cannabinoid receptor 2 (Homo sapiens, UniProt P34972, Q63R); experiment: Agonist activity at human CB2 receptor Q63R mutant
Sequence of Cannabinoid receptor 2 (Homo sapiens, UniProt P34972, Q63R) (P34972 whole entry Q63R): as the sequence (P34972 whole entry) above, with Q63R counted along it

T1 sequence (P47936 whole entry): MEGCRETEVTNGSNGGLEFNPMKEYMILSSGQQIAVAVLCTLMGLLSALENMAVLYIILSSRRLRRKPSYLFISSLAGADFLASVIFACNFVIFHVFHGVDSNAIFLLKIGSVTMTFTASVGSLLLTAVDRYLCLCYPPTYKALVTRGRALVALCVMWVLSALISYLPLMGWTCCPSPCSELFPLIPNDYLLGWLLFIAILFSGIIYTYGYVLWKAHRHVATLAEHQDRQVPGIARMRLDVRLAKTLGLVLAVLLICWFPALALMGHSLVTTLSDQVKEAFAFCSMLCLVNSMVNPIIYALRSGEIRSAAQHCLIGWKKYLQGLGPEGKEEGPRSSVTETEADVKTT

| SMILES | Fh [1] [%] | EC50 (Cannabinoid receptor 2 [2]) [nM] | EC50 (Cannabinoid receptor 1 [3]) [nM] | Papp [4] [×10⁻⁶ cm/s] | EC50 (Cannabinoid receptor 1 [5]) [nM] | Papp [6] [×10⁻⁶ cm/s] | Ki (Cannabinoid receptor 2 [7]) [nM] | EC50 (Cannabinoid receptor 2 [8]) [nM] | Ki (Cannabinoid receptor 2 [9]) [nM] | solubility [10] [µg/mL] | logD [11] | EC50 (Cannabinoid receptor 2 [12]) [nM] | Ki (Cannabinoid receptor 2 [13]) [nM] | Ki (Cannabinoid receptor 1 [14]) [nM] | EC50 (Cannabinoid receptor 2 [15]) [nM] |
| --- | --- | --- | --- | --- | --- | --- | --- | --- | --- | --- | --- | --- | --- | --- | --- |
| O=C(N1CCc2ccccc21)C12CC3CC(CC1C3)C2 | 55 | 51 | > 10000 | 1.9 | > 10000 | 0.5 | > 10000 | 900 | 500 | < 1 | 3.7 | 22 |  |  |  |
| O=C(NC12CC3CC(CC(C3)C1)C2)c1nn(CCN2CCOCC2)c2ccccc12 |  |  |  |  |  |  |  |  |  |  |  |  | 0.15 | 6.8 |  |
| CN1CCN(C(=O)C23CC4CC(CC(C4)C2)C3)c2ccccc21 | 10 | 22 | > 10000 |  | > 10000 |  | 2800 | > 10000 | 500 | < 1 | 4.09 | 29 |  |  | 71 |
| O=C(NC(=S)N1CCCCC1)C12CC3CC(CC(C3)C1)C2 |  |  |  |  | > 10000 |  |  | 500 |  |  |  | 1400 |  |  |  |
| Cc1csc(NC(=O)C23CC4CC(CC(C4)C2)C3)n1 |  |  |  |  | > 10000 |  |  | 900 |  |  |  | 600 |  |  |  |
| COC1CCN(C(=O)C23CC4CC(CC(C4)C2)C3)c2ccccc21 (stereo not given) | 12 | 23 | > 10000 | 3.3 | > 10000 | 4.6 | 5200 | 1300 | 770 | 10 (≈ 30.7 µM) | 3.79 |  |  |  | 78 |
| Cc1cccc2c1CCN2C(=O)C12CC3CC(CC(C3)C1)C2 | 46 | 7 | > 10000 |  | > 10000 |  | 1300 | 290 | 170 | < 1 |  | 4 |  |  | 11 |
| O=C(N1CCc2ccc(C(F)(F)F)cc21)C12CC3CC(CC(C3)C1)C2 | 36 | 2.9 | > 10000 |  | > 10000 |  | 2800 | 750 | 2500 | < 1 |  | 15 |  |  | 49 |
| O=C(NC12CC3CC(CC(C3)C1)C2)N1Cc2ccccc2C1 | 37 | 19 | > 10000 | 12 | > 10000 | 26 | 400 | 700 | 270 | < 1 | 4.26 |  |  |  | 27 |
| O=C(N1CCc2ccccc21)C12CC3CC(CC(O)(C3)C1)C2 | 90 | 1000 |  | 10.3 | > 10000 | 25 |  | 2600 |  | > 318 | 2.77 |  |  |  | 531 |
| CCOc1ccc(NC(=O)C23CC4CC(CC(C4)C2)C3)cc1 |  |  |  |  | > 10000 |  |  |  |  |  |  | 1200 |  |  |  |
| O=C(N1CCc2ccccc21)C12CC3CC(CC(C3)C1)C2 | 45 | 26 | > 10000 | 0.4 | > 10000 | 2 | > 10000 | 220 | 460 | < 1 |  |  |  |  |  |
| COC(=O)c1cccc(NC(=O)C23CC4CC(CC(C4)C2)C3)c1 |  |  |  |  | > 10000 |  |  |  |  |  |  | > 10000 |  |  |  |
| O=C(N1CCc2cc(F)ccc21)C12CC3CC(CC(C3)C1)C2 | 52 | 9 | > 6000 | 2.3 | > 10000 | 4.7 | 2400 | 200 | 200 | < 1 |  |  |  |  |  |
| CC1(C)CN(C(=O)C23CC4CC(CC(C4)C2)C3)c2ccccc21 | 39 | 40 | > 10000 |  | > 10000 |  | 4900 | 900 | 500 | < 1 |  | 16 |  |  | 36 |
| O=C(N1CCCc2ccccc21)C12CC3CC(CC(C3)C1)C2 | 23 | 126 | > 10000 |  | > 10000 |  | 4300 | > 10000 | 790 | < 1 |  |  |  |  | 55 |
| CCOC1CCN(C(=O)C23CC4CC(CC(C4)C2)C3)c2ccccc21 (stereo not given) | 6 | 28 | 5000 | 0.7 | > 10000 | 0.9 | > 10000 |  | 990 | 17 (≈ 50.1 µM) | 4.09 | 1.8 |  |  |  |
| COCCOC1CCN(C(=O)C23CC4CC(CC(C4)C2)C3)c2ccccc21 (stereo not given) | 5 | 20 | > 10000 | 4.4 | > 10000 | 5.7 | 1500 | 900 | 350 | 97 (≈ 263 µM) | 3.82 | 20 |  |  | 24 |
| Cc1cccc2c1N(C(=O)C13CC4CC(CC(C4)C1)C3)CC2 | 51 | 50 | > 10000 |  | > 10000 |  | > 10000 | 1600 | 600 | < 1 |  | 55 |  |  | 81 |
| CCOC(=O)c1ccccc1NC(=O)C12CC3CC(CC(C3)C1)C2 |  |  |  |  | > 10000 |  |  | 76 |  |  |  | 15 |  |  |  |
| O=C(C1C2CC3CC(C2)CC1C3)N1CCc2ccccc21 (stereo not given) | 37 | 20 | > 10000 | 0.1 | > 10000 | 5 | 2200 | 160 | 320 | < 1 |  | 7 |  |  | 11 |
| CC(=O)c1ccccc1NC(=O)C12CC3CC(CC(C3)C1)C2 |  |  |  |  | > 10000 |  |  |  |  |  |  | 100 |  |  |  |
| O=C(N1CCCCc2ccccc21)C12CC3CC(CC(C3)C1)C2 |  | > 10000 |  |  |  |  |  |  |  |  |  | > 10000 |  |  |  |
| O=C(N1Cc2ccccc2C1)C12CC3CC(CC(C3)C1)C2 | 51 | 7 | > 10000 | 0.5 | > 10000 | 14 | 900 | 600 | 500 | < 1 |  |  |  |  |  |
